Data taken from US20070134261A1, “Effectors of innate immunity” (priority 2001, published 2007).
Converted amounts (≈) assume the structure as drawn. Starred links: 1 amine or outer side, 2 acyl side, 3 side chain; linkers in the order of their positions; H or OH if unused. Positions of bridges follow the written chain, without caps; N, C: chain ends. Non-standard residues stand in square brackets, D forms with d. Residues, ends and D or L forms follow the SMILES beside them. Chains are numbered I, II in the order given. Actinocin(9to1) = Cc1c2oc3c(C)ccc(C(=O)[*:1])c3nc-2c(C(=O)[*:2])c(N)c1=O; NMeV = CN[C@H](C(=O)O)C(C)C; Sar = CNCC(=O)O

Experiments:
THP-1 cells [1] = assay: Quantitative real-time PCR (qPCR) in THP-1 cells; assay type: cell-based, human; details: 4 μg/ml, within 1 hour of treatment (data not shown)
Procedure: Quantitative real-time PCR (qPCR)—Differential gene expression identified by microarray analysis was validated using quantitative real-time PCR (qPCR) using SuperScriptTM III Platinum® Two-Step qRT-PCR Kit with SYBR® Green (Invitrogen Life Technologies), as per the manufacturer's instructions, in the ABI PRISMS® 7000 sequence detection system (Applied Biosystems, Foster city, Calif., USA). Briefly, 1 μg of total RNA was reverse transcribed in a 20 μl reaction volume for 50 min at 42° C., the reaction was terminated by incubating for 5 min at 85° C. and then digested for 30 min at 37° C. with RNAse H. The PCR reaction was carried out in a 12.5 μl reaction volume containing 2.5 μl of 1/10 diluted cDNA template. A melting curve was performed to ensure that any product detected was specific to the desired amplicon. Fold changes were calculated after normalization to endogenous GAPDH and using the comparative Ct method (Pfaffl MW. A new mathematical model for relative quantification in real-time RT-PCR. Nucleic Acids Res 2001; 29:No. 9 e45).

[2] = system: Human monocytic cells, THP-1; assay: LPS-induced TNFα secretion by THP-1 cells (ELISA)
HBE cells [3] = assay: WST-1 assay (cell viability); assay type: cell-based, human
Method in brief: (§1)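 Both read-outs were colorimetric at OD490 on HBE cells after 24 h with 100 μg of each peptide. The WST-1 assay reported viability through mitochondrial dehydrogenase cleavage of the tetrazolium salt. The LDH assay tested the removed supernatant for enzyme leaked from membrane-damaged cells.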

THP-1 cells [4] = system: THP-1 cells
HBE cells [5] = details: 50 μg/ml, 4 h
[6] = assay type: cell-based; details: overnight, 96-well plate
[7] = system: human bronchial epithelial cells (HBE); assay: LDH release assay (Cytotoxicity Detection Kit); assay type: cell-based; details: 100 μg/ml, 24 hours; no peptide control 1.0 ± 0.05
Method in brief: as §1

[8] = system: RAW 264.7 mouse macrophage cells; assay type: cell-based; details: 20 μg/ml; 1 μg/ml AraLAM
Procedure: The ability of compounds to neutralize the stimulation of immune cells by both Gram-negative and Gram-positive bacterial products was tested. Bacterial products stimulate cells of the immune system to produce inflammatory cytokines and when unchecked this can lead to sepsis. Initial experiments utilized the murine macrophage cell line RAW 264.7, which was obtained from the American Type Culture Collection, (Manassas, Va.), the human epithelial cell line, A549, and primary macrophages derived from the bone marrow of BALB/c mice (Charles River Laboratories, Wilmington, Mass.). The cells from mouse bone marrow were cultured in 150-mm plates in Dulbecco's modified Eagle medium (DMEM; Life Technologies, Burlington, ON) supplemented with 20% FBS (Sigma Chemical Co, St. Louis, Mo.) and 20% L cell-conditioned medium as a source of M-CSF. Once macrophages were 60-80% confluent, they were deprived of L cell-conditioned medium for 14-16 h to render the cells quiescent and then were subjected to treatments with 100 ng/ml LPS or 100 ng/ml LPS+20 μg/ml peptide for 24 hours. The release of cytokines into the culture supernatant was determined by ELISA (R&D Systems, Minneapolis, Minn.). […] The samples were centrifuged for 5 min at 2000×g, the plasma was collected and then stored at −20° C. until being analyzed for IL-8 by ELISA (R&D Systems). […] Survival was monitored for 48 hours post injection.

NFκB subunits = assay: Translocation of NFκB subunits in nuclear extracts of THP-1 cells (Western blot, ELISA); assay type: cell-based, human; details: 60 min
Human Jurkat T cells = assay: SDF-1 induced migration of human Jurkat T cells (Transwell); assay type: cell-based; details: SDF-1 + peptide (50 μg/ml), positive control 100%
Procedure: SDF-1, a C-X-C chemokine is a natural ligand for HIV-1 coreceptor-CXCR4. The chemokine receptors CXCR4 and CCR5 are considered to be potential targets for the inhibition of HIV-1 replication. […] The migration assays were performed as follows. Human Jurkat T cells were resuspended to 5×10^6/ml in chemotaxis medium (RPMI 1640/10 mM Hepes/0.5% BSA). Migration assays were performed in 24 well plates using […] polycarbonate Transwell inserts (Costar). Briefly, peptide or controls were diluted in chemotaxis medium and placed in the lower chamber while 0.1 ml cells (5×10^6/ml) was added to the upper chamber. After 3 hr at 37° C., the number of cells that had migrated into the lower chamber was determined using flow cytometry. The medium from the lower chamber was passed through a FACscan for 30 seconds, gating on forward and side scatter to exclude cell debris. The number of live cells was compared to a “100% migration control” in which 5×10^5/ml cells had been pipetted directly into the lower chamber and then counted on the FACscan for 30 seconds.

Cc1c2oc3c(C)ccc(C(=O)N[C@@H]4C(=O)N[C@H](C(C)C)C(=O)N5CCC[C@H]5C(=O)N(C)CC(=O)N(C)[C@@H](C(C)C)C(=O)O[C@@H]4C)c3nc-2c(C(=O)N[C@@H]2C(=O)N[C@H](C(C)C)C(=O)N3CCC[C@H]3C(=O)N(C)CC(=O)N(C)[C@@H](C(C)C)C(=O)O[C@@H]2C)c(N)c1=O [Actinomycin D] (I: T[dV]P[Sar][NMeV] / II: T[dV]P[Sar][NMeV]; ester I:1-I:C, II:1-II:C; linker I:N-II:N via Actinocin(9to1))
inhibition of LPS-induced transcription of TNFα and TNFAIP2 genes (THP-1 cells [1]): more than 96%
reduction of TNFα release ([2]; 4 μg/ml, LPS-stimulated THP-1 cells): 97.6%

CC[C@@]1([C@@H]2O[C@@H]([C@H]3O[C@@](O)(CO)[C@H](C)C[C@@H]3C)C[C@@H]2C)CC[C@H]([C@]2(C)CC[C@]3(C[C@H](O)[C@@H](C)[C@@H]([C@@H](C)[C@@H](OC)[C@H](C)C(=O)O)O3)O2)O1 [Monensin]
TNFα within cells (cytoplasmic extracts) ([2]; LPS stimulation for 60 min): accumulation of TNFα within cells

CC[C@H](C)[C@H](NC(=O)[C@H](CCCCN)NC(=O)[C@H](CCC(=O)O)NC(=O)[C@H](CCCCN)NC(=O)[C@H](CO)NC(=O)[C@H](CCCCN)NC(=O)[C@H](CCCNC(=N)N)NC(=O)[C@H](Cc1ccccc1)NC(=O)[C@H](Cc1ccccc1)NC(=O)[C@H](CC(=O)O)NC(=O)CNC(=O)[C@H](CC(C)C)NC(=O)[C@@H](N)CC(C)C)C(=O)NCC(=O)N[C@@H](CCCCN)C(=O)N[C@@H](CCC(=O)O)C(=O)N[C@@H](Cc1ccccc1)C(=O)N[C@@H](CCCCN)C(=O)N[C@@H](CCCNC(=N)N)C(=O)N[C@H](C(=O)N[C@H](C(=O)N[C@@H](CCC(N)=O)C(=O)N[C@@H](CCCNC(=N)N)C(=O)N[C@H](C(=O)N[C@@H](CCCCN)C(=O)N[C@@H](CC(=O)O)C(=O)N[C@@H](Cc1ccccc1)C(=O)N[C@@H](CC(C)C)C(=O)N[C@@H](CCCNC(=N)N)C(=O)N[C@@H](CC(N)=O)C(=O)N[C@@H](CC(C)C)C(=O)N[C@H](C(=O)N1CCC[C@H]1C(=O)N[C@@H](CCCNC(=N)N)C(=O)N[C@H](C(=O)N[C@@H](CCC(=O)O)C(=O)N[C@@H](CO)C(=O)O)[C@@H](C)O)C(C)C)[C@@H](C)CC)C(C)C)[C@@H](C)CC [SEQ ID NO: 1, reference compound]
OD490 nm (WST-1 cell viability) (HBE cells [3]): 1.62 ± 0.34 OD490 nm
cytotoxicity (THP-1 cells [4]): not cytotoxic
Ratio of SEQ ID NO: 1-treated:control, L41559 6-pyruvoyl-tetrahydropterin synthase/dimerization cofactor of hepatocyte nuclear factor 1 alpha (HBE cells [5]): 0.20
Ratio of SEQ ID NO: 1-treated:control, NM_000120 epoxide hydrolase 1, microsomal (HBE cells [5]): 0.22
MIC, C. rhod. ([6]; Citobacter rhodensis): 8 µg/mL (≈ 1.78 µM)
MIC, EHEC ([6]; Enterohaemorrhagic E. coli): 4 µg/mL (≈ 0.89 µM)
MIC, E. coli ([6]; Escherichia coli): 32 µg/mL (≈ 7.12 µM)
MIC, P. aerug. ([6]; Pseudomonas aeruginosa): 96 µg/mL (≈ 21.4 µM)
MIC, S. typhim. ([6]; Salmonella enteritidis ssp. typhimurium): 64 µg/mL (≈ 14.2 µM)
LDH Release (OD490 nm) [7]: 1.18 ± 0.05 OD490 nm

Polymyxin B
OD490 nm (WST-1 cell viability) (HBE cells [3]): 1.30 ± 0.13 OD490 nm
Inhibition of TNF-α [8]: 15 ± 2%
inhibition of LPS-induced p50 translocation (NFκB subunits): 82±5%
inhibition of LPS-induced p65 translocation (NFκB subunits): 80±90%
LDH Release (OD490 nm) [7]: 1.21 ± 0.03 OD490 nm

SEQ 1D 1 (LLGDFFRKSKEKIGKEFKRIVQRIKDFLRNLVPRTES)
Migration (%) (Human Jurkat T cells; Experiment 1): 0%
Migration (%) (Human Jurkat T cells; Experiment 2): 0%
